Data taken from patent US20100076047A1, “Amorphous 1-(9H-carbazol-4-yloxy)-3-[[2-(2-methoxyphenoxy)ethyl]amino]-2-propanol phosphate salt” (priority 2007, published 2010).
Counter-ions that a name gives are not always drawn.

Legend:
[1] = moisture uptake on exposure to air; type: physicochemical
[2] = storage stability of the solid amorphous form (XRD); type: physicochemical
Description: Solid amorphous Carvedilol dihydrogen phosphate is provided herein.

COc1ccccc1OCCNCC(O)COc1cccc2[nH]c3ccccc3c12 (stereo not shown) [1-(9H-carbazol-4-yloxy)-3-[[2-(2-methoxyphenoxy)ethyl]amino]-2-propanol phosphate salt]
XRD pattern after moisture uptake ([1]; after picking up moisture up to 7%): remains identical
moisture picked up when exposed to air ([1]; material of low moisture content exposed to air, forming higher hydrates): up to 7%
stability on storage ([2]; stored under controlled humidity conditions, no conversion to a crystalline form): stable
stability profile compared to the existing crystalline forms ([2]; versus existing crystalline forms): superior stability profile
